Results taken from publication PMC9607427, “Novel 7-Chloro-(4-thioalkylquinoline) Derivatives: Synthesis and Antiproliferative Activity through Inducing Apoptosis and DNA/RNA Damage” (Pharmaceuticals, 2022).
pIC50: −log10 of the molar value. Like-named read-outs stand apart in the source and are kept apart here.

Key:
[1] = tested on: eight human cancer and 4 non-tumor cell lines; test: Cytotoxic MTS assay, whole panel of tested cell lines; format: cell-based; details: for Selectivity for cancer cells compared against BJ and MRC-5 cells: colon, leukemia, lung and osteosarcoma cancer cell lines vs BJ and MRC-5; for Selectivity for leukemic and colorectal cancer cells compared to MRC-5: leukemic and colorectal (with and without p53 deletion) cancer cells vs MRC-5
Description: (§1) In vitro cytotoxic activity of final compounds 5–82 was evaluated after 3 days of incubation against eight cell lines derived from human solid tumors including lung (A549 cells) and colon (HCT116 and HCT116p53−/−) carcinomas, as well as leukemia cell lines (CCRF-CEM, CEM-DNR, K562, and K562-TAX) and osteosarcoma (U2OS cells). For comparison, non-malignant BJ and MRC-5 fibroblasts, and BJLD and MCR-5LD fibroblasts doxorubicin-resistant cell lines were used. Concentrations inhibiting the cell growth by 50% (IC50) were determined using a quantitative metabolic staining with 3-(4,5-dimethylthiazol-2yl)-5-(3-carboxymethoxyphenyl)-2-(4-sulfophenyl)-2H-tetrazolium (MTS) and are summarized in (Table 3).
(§2) Cytotoxic activity was determined by MTS assay following 72 h of incubation. IC50 is the lowest concentration that kills 50% of cells. The standard deviation in cytotoxicity assays is typically up to 20% of the average value. […] The tested cell lines: A549 (lung adenocarcinoma), BJ (noncancerous human fibroblasts from foreskin), BJLD (human lung fibroblast doxorubicin-resistant), CCRF-CEM (childhood T cell acute lymphoblastic leukemia), a daunorubicin-resistant subline of CCRF-CEM cells (CEM-DNR bulk), HCT116 (colorectal carcinoma), HCT116p53−/− (HCT116 with deleted p53 gene), K562 (chronic myeloid leukemia), K562-TAX (chronic myeloid leukemia paclitaxel-resistant subline), MRC-5 (noncancerous human lung fibroblasts), MRC-5LD (noncancerous human lung fibroblasts doxorubicin-resistant), and U2OS (osteosarcoma).
(§3) All cell lines were purchased from the American Tissue Culture Collection (ATCC). The A549 cell line is lung adenocarcinoma. MRC-5 and BJ cell lines were used as a non-tumor control and represent human fibroblasts. (MRC-5 LD and BJLD) are doxorubicin-resistant human lung fibroblast cell lines. The CCRF-CEM line is derived from T lymphoblastic leukemia, evincing high chemosensitivity, whereas K562 represent cells from an […] patient sample with bcr-abl translocation. The daunorubicin-resistant subline of CCRF-CEM cells (CEM-DNR bulk) and paclitaxel-resistant subline K562-TAX were selected in our laboratory by the cultivation of maternal cell lines in increasing concentrations of daunorubicin or paclitaxel, respectively. The CEM-DNR bulk cells overexpress MRP-1 and P-glycoprotein protein, whereas K562-TAX cells overexpress P-glycoprotein only. Both proteins belong to the family of ABC transporters and are involved in the primary and/or acquired multidrug-resistance phenomenon. The U2OS cell line is derived from osteosarcoma, HCT116 is a colorectal tumor cell line and its p53 gene knock-down counterpart (HCT116p53−/−, Horizon Discovery Ltd., Cambridge, UK) is a model of human cancers with p53 mutation frequently associated with poor prognosis. The cells were maintained in nunc/corning 80 cm^2 plastic tissue culture flasks and cultured in a cell culture medium according to ATCC or Horizon recommendations (DMEM/RPMI 1640 with 5 g/L glucose, 2 mM glutamine, 100 U/mL penicillin, […], 10% fetal calf serum, and NaHCO3).
(§4) The activity of compounds was determined using a standard 3-(4,5-dimethylthiazol-2-yl)-5-(3-carboxymethoxyphenyl)-2-(4-sulfophenyl)-2H-tetrazolium (MTS) and it was performed at the Institute of Molecular and Translational Medicine by a robotic platform (High-ResBiosolutions). Cell suspensions were prepared and diluted according to the particular cell type and the expected target cell density (25,000–35,000 cells/mL based on cell growth characteristics). Cells were added by automatic pipettor (30 µL) into 384-well microtiter plates. All tested compounds were dissolved in 100% DMSO and four-fold dilutions of the intended test concentration were added in 0.15 µL aliquots at time zero to the microtiter plate wells by the echo acoustic non-contact liquid handler Echo550 (Labcyte). […]

[2] = tested on: MRC-5LD (noncancerous human lung fibroblasts doxorubicin-resistant); test: Cytotoxic MTS assay, MRC-5LD; format: cell-based
Description: as §1, §2, §3, §4

U2OS (osteosarcoma) = test: Cytotoxic MTS assay, U2OS; format: cell-based, human
Description: as §1, §2, §3, §4

[3] = tested on: K562 (chronic myeloid leukemia); test: Cytotoxic MTS assay, K562; format: cell-based, human
Description: as §1, §2, §3, §4

[4] = tested on: BJ (noncancerous human fibroblasts from foreskin); test: Cytotoxic MTS assay, BJ; format: cell-based
Description: as §1, §2, §3, §4

[5] = tested on: CCRF-CEM (childhood T cell acute lymphoblastic leukemia); test: Cytotoxic MTS assay, CCRF-CEM; format: cell-based, human
Description: as §1, §2, §3, §4

[6] = tested on: CEM-DNR bulk (daunorubicin-resistant subline of CCRF-CEM cells); test: Cytotoxic MTS assay, CEM-DNR; format: cell-based, human
Description: as §1, §2, §3, §4

[7] = tested on: K562-TAX (chronic myeloid leukemia paclitaxel-resistant subline); test: Cytotoxic MTS assay, K562-TAX; format: cell-based, human
Description: as §1, §2, §3, §4

[8] = tested on: A549 (lung adenocarcinoma); test: Cytotoxic MTS assay, A549; format: cell-based, human
Description: as §1, §2, §3, §4

[9] = tested on: MRC-5 (noncancerous human lung fibroblasts); test: Cytotoxic MTS assay, MRC-5; format: cell-based
Description: as §1, §2, §3, §4

[10] = tested on: HCT116p53−/− (HCT116 with deleted p53 gene); test: Cytotoxic MTS assay, HCT116p53−/−; format: cell-based, human
Description: as §1, §2, §3, §4

[11] = tested on: BJLD (human lung fibroblast doxorubicin-resistant); test: Cytotoxic MTS assay, BJLD; format: cell-based
Description: as §1, §2, §3, §4

[12] = tested on: HCT116 (colorectal carcinoma); test: Cytotoxic MTS assay, HCT116; format: cell-based, human
Description: as §1, §2, §3, §4

[13] = Cytotoxic MTS assay, MRC-5LD; format: cell-based, human; details: human; MTS, 72 h of incubation; read-out: Cytotoxic activity IC50, MRC5-LD
Description: as §1, §2, §3, §4

Cytotoxic MTS assay, BJ = format: cell-based, human; details: human, BJ cells (noncancerous foreskin fibroblasts); MTS, 72 h of incubation
Description: as §1, §2, §3, §4

[14] = Cytotoxic MTS assay, MRC-5; format: cell-based, human; details: human, MRC-5 cells (noncancerous lung fibroblasts); MTS, 72 h of incubation
Description: as §1, §2, §3, §4

[15] = Cytotoxic MTS assay, BJLD; format: cell-based, human; details: human, BJLD cells (fibroblasts, doxorubicin-resistant); MTS, 72 h of incubation
Description: as §1, §2, §3, §4

[16] = Homo sapiens, U2OS, MTS, 72 h of incubation, read-out: Cytotoxic activity IC50, U2OS
[17] = Homo sapiens, K562, MTS, 72 h of incubation, read-out: Cytotoxic activity IC50, K562
[18] = Homo sapiens, CCRF-CEM, MTS, 72 h of incubation, read-out: Cytotoxic activity IC50, CCRF-CEM
[19] = Homo sapiens, CEM-DNR, MTS, 72 h of incubation, read-out: Cytotoxic activity IC50, CEM-DNR
[20] = Homo sapiens, K562-Tax, MTS, 72 h of incubation, read-out: Cytotoxic activity IC50, K562-TAX
[21] = Homo sapiens, A549, MTS, 72 h of incubation, read-out: Cytotoxic activity IC50, A549
[22] = Homo sapiens, HCT-116, MTS, 72 h of incubation, read-out: Cytotoxic activity IC50, HCT116-p53
[23] = Homo sapiens, HCT-116, MTS, 72 h of incubation, read-out: Cytotoxic activity IC50, HCT116

## Cc1ccc(C)c(C(=O)OCCS(=O)(=O)c2cc[n+]([O-])c3cc(Cl)ccc23)c1 [Compound 71, 2-[(N-Oxide 7-chloroquinolin-4-yl)sulfonyl]ethyl-,5-dimethylbenzoate]
[1]
  pIC50: < 4.30

## COc1ccc(C(=O)OCCCS(=O)(=O)c2cc[n+]([O-])c3cc(Cl)ccc23)cc1[N+](=O)[O-] [Compound 79, 3-[(N-Oxide 7-chloroquinolin-4-yl)sulfonyl]propyl-4-methoxy-3-nitrobenzoate]
[2]
  pIC50: 4.86
U2OS (osteosarcoma)
  pIC50: 5.31
[3]
  pIC50: 5.22
[4]
  pIC50: 4.72
[5]
  pIC50: 5.98
[6]
  pIC50: 5.35
[7]
  pIC50: 5.43
[8]
  pIC50: 5.24
[8]; A549 vs BJ and MRC-5
  Cancer cell selectivity for A549 cells compared to BJ and MRC-5 cell lines: moderate cancer cell selectivity
[9]
  pIC50: 4.69
[10]
  pIC50: 5.30
[11]
  pIC50: 4.92
[12]
  pIC50: 5.42
[1]
  Selectivity for cancer cells compared against BJ and MRC-5 cells: good selectivity

## COc1cccc(C(=O)OCCCS(=O)(=O)c2cc[n+]([O-])c3cc(Cl)ccc23)c1OC [Compound 74, 3-[(N-Oxide 7-chloroquinolin-4-yl)sulfonyl]propyl-2,3-dimethoxybenzoate]
[2]
  pIC50: 4.79
U2OS (osteosarcoma)
  pIC50: 5.27
[3]
  pIC50: 5.57
[4]
  pIC50: 4.83
[5]
  pIC50: 5.85
[6]
  pIC50: 5.25
[7]
  pIC50: 5.31
[8]
  pIC50: 5.27
[9]
  pIC50: 4.69
[11]
  pIC50: 4.98
[12]
  pIC50: 5.49
[1]
  Selectivity for leukemic and colorectal cancer cells compared to MRC-5: good selectivity

## COc1cc(OC)cc(C(=O)OCCC[S+]([O-])c2ccnc3cc(Cl)ccc23)c1 (stereo not drawn) [Compound 55, 3-[(7-Chloroquinolin-4-yl)sulfinyl]propyl-,5-dimethoxybenzoate]
[1]
  pIC50: < 4.30

## Cc1cc(C)cc(C(=O)OCCCS(=O)(=O)c2cc[n+]([O-])c3cc(Cl)ccc23)c1 [Compound 81, 3-[(N-Oxide 7-chloroquinolin-4-yl)sulfonyl]propyl-3,5-dimethylbenzoate]
[2]
  pIC50: 4.66
U2OS (osteosarcoma)
  pIC50: 5.25
[3]
  pIC50: 5.42
[4]
  pIC50: 4.49
[5]
  pIC50: 5.92
[6]
  pIC50: 5.18
[7]
  pIC50: 5.20
[8]
  pIC50: 5.27
[9]
  pIC50: 4.33
[10]
  pIC50: 5.32
[11]
  pIC50: 4.60
[12]
  pIC50: 5.46
[1]
  Selectivity for cancer cells compared against BJ and MRC-5 cells: most pronounced selectivity

## COc1ccc(C(=O)OCCCS(=O)(=O)c2cc[n+]([O-])c3cc(Cl)ccc23)cc1 [Compound 73, 3-[(N-Oxide 7-chloroquinolin-4-yl)sulfonyl]propyl-4-methoxybenzoate]
[2]
  pIC50: 4.72
U2OS (osteosarcoma)
  pIC50: 5.24
[3]
  pIC50: 5.66
[4]
  pIC50: 4.91
[5]
  pIC50: 5.66
[6]
  pIC50: 5.33
[7]
  pIC50: 5.34
[8]
  pIC50: 5.26
[9]
  pIC50: 4.66
[10]
  pIC50: 5.65
[11]
  pIC50: 4.97
[12]
  pIC50: 5.70
[1]
  Selectivity for leukemic and colorectal cancer cells compared to MRC-5: good selectivity

## COc1ccc(C(=O)OCCC[S+]([O-])c2ccnc3cc(Cl)ccc23)cc1 (stereo not drawn) [Compound 53, 3-[(7-Chloroquinolin-4-yl)sulfinyl]propyl-4-methoxybenzoate]
[13]
  IC50 at 72 h: 22.4 µM
U2OS (osteosarcoma); [16]
  pIC50: 4.89
[3]; [17]
  pIC50: 4.86
Cytotoxic MTS assay, BJ
  IC50 at 72 h: 30 µM
[5]; [18]
  pIC50: 5.88
[6]; [19]
  pIC50: 5.06
[7]; [20]
  pIC50: 5.16
[8]; [21]
  pIC50: 4.63
[14]
  IC50 at 72 h: 27.9 µM
[10]; [22]
  pIC50: 5.07
[15]
  IC50 at 72 h: 28.2 µM
[12]; [23]
  pIC50: 4.90

## Cc1cc(C)cc(C(=O)OCC[S+]([O-])c2ccnc3cc(Cl)ccc23)c1 (stereo not drawn) [Compound 50, 2-[(7-Chloroquinolin-4-yl)sulfinyl]ethyl-3,5-dimethylbenzoate]
[13]
  IC50 at 72 h: 22.3 µM
U2OS (osteosarcoma); [16]
  pIC50: 5.07
[3]; [17]
  pIC50: 4.82
Cytotoxic MTS assay, BJ
  IC50 at 72 h: 30.8 µM
[5]; [18]
  pIC50: 5.88
[6]; [19]
  pIC50: 5.00
[7]; [20]
  pIC50: 5.02
[8]; [21]
  pIC50: 4.62
[14]
  IC50 at 72 h: 26.9 µM
[10]; [22]
  pIC50: 5.15
[15]
  IC50 at 72 h: 28.5 µM
[12]; [23]
  pIC50: 5.10

## COc1cc(C(=O)OCCS(=O)(=O)c2cc[n+]([O-])c3cc(Cl)ccc23)cc(OC)c1OC [Compound 67, 2-[(N-Oxide 7-chloroquinolin-4-yl)sulfonyl]ethyl-3,4,5-trimethoxybenzoate]
[13]
  IC50 at 72 h: 3.24 µM
U2OS (osteosarcoma); [16]
  pIC50: 5.03
[3]; [17]
  pIC50: 5.22
Cytotoxic MTS assay, BJ
  IC50 at 72 h: 24.8 µM
[5]; [18]
  pIC50: 5.98
[6]; [19]
  pIC50: 5.05
[7]; [20]
  pIC50: 5.28
[8]; [21]
  pIC50: 4.55
[14]
  IC50 at 72 h: 5.79 µM
[10]; [22]
  pIC50: 5.10
[15]
  IC50 at 72 h: 11.9 µM
[12]; [23]
  pIC50: 4.96
